# Where two headings read alike, the source gives them in different places.
# Columns and labels:
# male rats = tested on: male rats
# Method: The effect of the sodium salt of 5-aminophthaloylhydrazide on blood pressure (BP) was examined in male rats weighing 230 to 270 g, in a controlled experiment where the rats were anesthetized with urethane. The blood pressure was recorded on tape by means of an electrical kymograph.
# At the same time, we recorded the electrocardiogram in the second standard position as well as any changes in frequency and depth of respiration by means of a Morey capsule. We administered 5-aminophthaloylhydrazide in the femoral vein in the form of an aqueous solution prepared in a 2% sodium bicarbonate solution (pH=8.2), in doses of 40 mg/kg, 80 mg/kg and 50 mg/kg. Research on 5-aminophthaloylhydrazide was performed on 16 rats.
# [1] = tested on: Corazolum- and strychnine-induced convulsions; conditions: 40 and 80 mg/kg
# [2] = tested on: lymphocytes, macrophages and fibroblasts; conditions: 24-hour in vitro, 0.01 to 0.8 mmols/liter
# Method: The cells used as subject matter included lymphocytes, macrophages and fibroblasts. Viability following a 24-hour in vitro exposure with 5-aminophthaloylhydrazide in concentrations of 0.01 to 0.8 mmols/liter was determined by means of protein incorporation and/or synthesis.
# physchem [3] = conditions: octanol/water, pH 7.4
# female pregnant rats = conditions: 60 mg/kg i.p.
# Method: Teratogenic tests and embryotoxicity tests were performed on 58 female pregnant rats. A single dose was injected intraperitoneally on days 1, 3, 7, 10, 14 and 17 of gestation (60 mg/kg). The rats were decapitated on day 21 of the pregnancy and the uteruses and fetuses were examined.
# physchem [4] = assay: physchem
# guinea pigs = tested on: guinea pigs
# Description: The allergenic activity of the drug was examined in guinea pigs.
# animal organisms = assay: Pharmacological studies, general toxicity statement; conditions: in vivo
# psoriasis = tested on: psoriasis
# Method: Patient, ill for 5 years. Was cured in the hospital several times during that period. Complained about itching, general weakness, unpleasant sensations in parts of the skin. […] Diagnosis: psoriasis approaching the acute phase.
# The drug was administered intravenously to the patient.
# [5] = tested on: skin transplant rejection in chinchillas; conditions: intravenous, p<0.01
# Method: The experiments involved 30 chinchillas from which a strip of skin was removed measuring 2×2 cm. The resulting lesion was covered by an outside transplant. The animals were divided into three groups.
# The first group was treated with traditional therapy (prednisolone and cyclosporine); the second group was given 5aminophthaloylhydrazide daily in a dose of 150 mg/kg; the third group received a combined treatment.
# To assess the efficacy of the drug, the period before the rejection was measured and morphological studies were conducted.
# transplant rejection = assay: Skin transplant from another animal (description); type: in vivo; conditions: 100 to 200 mg/kg
# Description: Treatment started on the second day following a skin transplant from another animal and continued for 45 to 50 days.
# [6] = tested on: high-level hypoxia in male mice
# Method: Experiments to test the resistance of the animals to high-level hypoxia were performed on 120 male mice weighing 18 to 20 g, and having reached sexual maturity.
# Five minutes before the experiment, the animals were given the following doses intramuscularly:
# the first group (control group), 0.1 ml of physiological solution;
# the second group (test group), a 20% oil solution in a dose of 30 mg/kg;
# the third group, 5-aminophthaloylhydrazide in a dose of 30 mg/kg;
# the fourth group, 5-aminophthaloylhydrazide in a dose of 60 mg/kg;
# the fifth group, 5-aminophthaloylhydrazide in a dose of 80 mg/kg;
# the sixth group, 5-aminophthaloylhydrazide in a dose of 150 mg/kg;
# the seventh group, the drug in a dose of 200 mg/kg.
# The period of tolerance to hypoxia was determined by raising the animals to an altitude of 10,400 meters at the speed of 100 meters per second.
# [7] = tested on: S. typhi TA 100, TA 102, and TA 97; assay: Mutagenicity, Ames' bacterial testing method; conditions: 0.01 and 2 mg/ml; rat liver microsomes
# Method: Mutagenicity was measured by means of Ames' bacterial testing method. The tests were performed with strains of S. typhi TA 100, TA 102, and TA 97. The microsome activator method was used whereby rat liver was induced with methylcolanthrene.
# mice, rats = conditions: oral and i.p., 500 and 2500 mg/kg, 14 days
# Method: Acute toxicity tests were performed on two animal species (mice, rats). More than 80 mice and 100 rats were used. The pharmaceutical was administered orally and intraperitoneally in doses of 500 and 2500 mg/kg (individual doses). The period of observation was 14 days.
smiles,measurement,setting,value
"Nc1cccc2c(=O)[nH][nH]c(=O)c12 [5-aminophthaloylhydrazide, 5-amino-2,3-dihydrophthalazine-1,2 dione]",electrocardiogram parameters,male rats; 20 mg and 50 mg/kg,no changes were observed in the electrocardiogram parameters of the heart
same,respiratory functions,male rats; 20 mg and 50 mg/kg,no impairment of the respiratory functions was observed
same,negative effect on the cardiovascular system or the respiration,male rats; 40 and 50 mg/kg,did not present any evidence of a negative effect on the cardiovascular system or the respiration
same,rise in blood pressure compared to the initial level,"male rats; i.v. 1% solution, 0.6 ml/minute, average",1.57±5.93%
same,sudden fluctuations in the increase in blood pressure,"male rats; i.v., 40 mg or 50 mg/kg",No sudden fluctuations in the increase in blood pressure were observed
same,time for blood pressure to return to the initial level,"male rats; i.v., average",≤ 30 min
same,fluctuations in the level of blood pressure compared to the beginning,"male rats; thirty minutes after administration, average",2.79±0.72
same,effects of acute focal hypoxia,acute focal hypoxia; in a series of cases,it was possible to prevent the effects of acute focal hypoxia
same,therapeutic effect by number of administrations,acute focal hypoxia; single vs two administrations at 12-hour intervals,a single administration of the drug proved insufficient and the main therapeutic effect was obtained after two administrations
same,reduction of induced convulsions,[1],did not reduce the induced convulsions
same,prevention of Corazolum- and strychnine-induced convulsions,[1]; preventive administration,did not prevent Corazolum- and strychnine-induced convulsions
same,toxicity (viability by protein incorporation and/or synthesis),[2],No toxicity was observed for any of the dosage levels tested
same,logD,physchem [3],-0.699
same,abnormality of the fetuses,"female pregnant rats; single dose on days 1, 3, 7, 10, 14 and 17 of gestation",No abnormality of the fetuses was observed
same,"site of uterine attachment, number, weight and mortality of the fetuses",female pregnant rats; vs control group,did not differ from those obtained for the control group
same,pKa,physchem [4],6.3
same,local irritation,guinea pigs; 20 to 100 mg,no symptoms of local irritation
same,erythema at the site of administration,guinea pigs; even large doses,No erythema was observed at the site of administration
same,signs of allergy,guinea pigs; subcutaneously or orally,No signs of allergy were observed
same,toxicity in animal organisms,animal organisms,absence of toxicity
same,response to subsequent treatment cycle,psoriasis; 12 days,made it possible to eliminate the main symptoms and led to a long-term remission of the main symptoms
same,residual pustules and papules,psoriasis; flexor parts of the hands,Individual pustules and papules on the flexor parts of the hands remained
same,time to return of acute symptoms,"psoriasis; human, in vivo",4 months
same,clinical symptoms,"psoriasis; intravenous, after 10 days of treatment","the itching and weakness disappeared, the temperature dropped and the skin symptoms disappeared"
same,affected parts of the skin tissue,"psoriasis; intravenous, day 20",the affected parts of the skin tissue had shrunk
same,rejection process vs traditional therapy,[5],slowed the rejection process down considerably
same,effectiveness vs hormonal drugs (corticosteroids),transplant rejection,exceeds the hormonal drugs with long-term action known thus far (corticosteroids)
same,clinical picture of psoriasis,psoriasis patients; 12 to 20 mg/kg daily,"the itching disappeared, the temperature went down and the surface area of the affected zone shrunk"
same,epithelization of the pustules,psoriasis patients; drug plus topical 4% solution in 10% DMSO,epithelization of the pustules occurred
same,stability,anhydrous conditions,stable in anhydrous conditions (can be preserved for over one year)
same,stability in aqueous solutions,aqueous solutions,sometimes unstable in aqueous solutions
same,therapeutic effectiveness vs Dibunolo,[6]; 30 mg/kg,less therapeutically effective than the known antioxidant Dibunolo
same,therapeutic effectiveness vs Dibunolo,"[6]; 100 mg, p<0.001",exceeded that of Dibunolo in a reliable manner
same,dose with the greatest therapeutic effect,[6]; intramuscular,80 mg/kg
same,extension of life under high-level hypoxia,"[6]; intramuscular, all doses",extended life under conditions of high-level hypoxia in all cases
same,therapeutic effect on last increase in dose,[6]; last increase in administered amount,did not increase the therapeutic effect achieved
same,inhibitory or mutagenic activity,[7],does not posses inhibitory or mutagenic activity
same,"morphological alteration of liver, kidneys, heart and brain","mice, rats",No morphological alteration was observed
same,percentage of lethal outcome,"mice, rats; vs control group",did not exceed that of the control group
